Consider three compounds from US10827753B2, “Compositions and methods for controlling nematodes” (Monsanto Technology LLC, priority 2007, dated 2020).

Marks after values point to notes of the source that are not given here.

For series [1], the system named is soybean cyst nematode (SCN). The series can be described thus: SCN greenhouse sand assay on soybean plants. In kind it is in vivo, Heterodera glycines. From the text:
Soybeans seeds are planted in 100% sand in two inch square plastic pots.
Chemical treatment is done when the soybeans show the first trifoliate beginning to emerge about 10 to 12 days after planting. At least four hours after chemical application the nematode soybean cyst nematode (SCN) eggs are applied and 28 days after the egg inoculation the test is harvested.
One milligram of chemistry per four pots is equal to one kilogram per hectare of chemical. A standard test uses four replications. For rates above 2 kg/ha, the desired amount of chemical is weighed into a 30 ml vial (example: 8 kg/ha rate=8 mg chemical in 30 ml vial). The chemical is dissolved in 2 ml of appropriate solvent, generally acetone. For rates below 2 kg/ha, 2 milligrams of chemistry is weighed into the vial and dissolved in 2 ml of the solvent. The appropriate amount of chemical concentrate is then pipetted into a separate 30 ml vial and solvent is added to bring the volume to 2 ml (example 0.5 kg/ha=0.5 ml of concentrate+1.5 ml solvent). Each dissolved concentrate is then brought to a total of 20 milliliters using 0.05% Triton X 100 surfactant solution.
Pots to be treated are moist but not saturated. To each of four pots, five milliliters of the appropriate chemical solution is pipetted to the media surface making sure to avoid contact with the base of the plant. Immediately following chemical application, using a mist nozzle, the pot surface is wetted sufficiently to saturate the pot watering in the chemistry. The chemical application is done in the morning.
Nematode eggs, either SCN or RKN, are added to distilled water to create a concentration of 1000 vermiform eggs […]. At least four hours after chemical treatment the eggs are applied to the treated pots plus non-treated check plants. A small hole about 1 cm deep is punched into the pot surface. One milliliter of the nematode egg slurry is pipetted into the hole. Immediately afterwards the hole is gently covered. Watering of the test plants is then restricted to only water as needed to prevent wilt for a period of 24 hours. After the 24 hour restricted watering, normal sub-irrigation watering is done for the duration of the test.

For series [2], the system named is mice. The conditions noted are these: cited from earlier work.
Series [3] deals with Meloidogyne incognita. Kind of series: Fall nematicidal field testing on squash microplots. In kind it is in vivo. The settings on record: for control of root galling compared with oxamyl at an equivalent rate: 2 kg/ha. From the text: The test site was located at 3511 Highway F in New Melle, Mo., Saint Charles county. The soil was a native prairie/pasture covering silty clay loam soil. Holes were dug using a Bobcat 763 skid loader with a 12-inch auger to a depth of 18 inches. Total volume of each hole was about 1.2 cubic feet. Six cubic yards of topsoil and 9 tons of river sand were purchased from Dardenne Farms Topsoil. Mixing to a ratio of 4 volumes sand to 1 volume soil was accomplished using a trailer-mounted 9 cubic foot concrete mixer. Holes were filled and then re-filled 5 days later after settling. The mixture was 92.5% sand, 2.5% silt, and 5% clay. Organic matter was 0.2% and pH was 6.8.
Treatments were arranged in a block design with the blocks laid out perpendicular to the primary slope and parallel to secondary slope. There are 7 inoculated controls and 5 non-inoculated controls and the distributions of disease severity appeared independent of location.
Application rates are expressed as kg of active material per hectare, and the mg per plot is based on the surface area of the bored and filled holes (0.000008559 Ha). The DC compounds were formulated immediately before application as follows: 1) the amount required to treat all six replicates was dissolved in 300 ml of acetone, 2) for each plot 50 ml of that solution was added to a graduated cylinder with 2 ml of 12.5% Triton X100 and the volume was raised to 500 ml with tap water. The resultant mix is the same as used in the standard greenhouse assays (10% acetone, 0.05%×100). The oxamyl treatments were prepared from Vydate 2 L formulated the same way. The 500 ml was placed in a watering can and the entire volume was evenly sprinkled over the surface of the plot. No runoff occurred and pooling, if any, was short lived. The final drench volume was 0.58 ml/cm^2, compared to 0.2 ml/cm^2 used in our greenhouse, however the microplots are much deeper so the drench volume applied per soil volume treated is roughly the same.
Meloidogyne incognita eggs were harvested over a two week period and stored at approximately 5° C. until needed. A stock of 5.6 million vermiform eggs was adjusted to 9000/ml in 620 ml. One day after treatment, two holes were made in each plot about 7 cm apart and equidistant from the squash plants. Five ml of egg suspension was pipetted into each hole, which was then sealed and the plot lightly watered. A total of 90,000 vermiform eggs were added to each plot.
The first root evaluation was at 28 DAT. The tops were cut off and weighed immediately in the field, and the roots were carefully dug out so as not to disturb the remaining plant.

Series [4] deals with Caenorhabditis elegans ced-3(n717) and ced-4(N1162) mutants. Kind of series: Susceptibility of apoptosis-defective C. elegans mutants on NGM agar plates. Type of series: in vivo. The conditions noted are these: 10 μg/ml on NGM agar plates.

With `CCOP(=O)(NC(C)C)Oc1ccc(SC)c(C)c1` (centres unmarked) [Fenamiphos, fenamiphos, reference compound], the “percent control (cyst number reduction) relative to the control blank treatment” value in series [1] (0.1 kg/ha, test d) is given as 5^d percent; in series [1] (0.25 kg/ha, test d), 26^d percent; in series [1] (1 kg/ha, test a), 98^a percent; in series [1] (1 kg/ha, test b) it was 98^b percent; in series [1] (1 kg/ha, test c) it was 94^c percent. Besides, the “oral LD50 in mice” value in series [2] is recorded as 22.7 mg/kg.

Take `Brc1ccc(-c2cnc(-c3cccs3)o2)cc1` [compound 4776]: in series [3] (2 kg ai/ha drench, squash), the “RG28 = % root galls at 28 days after treatment” value turned out to be 19.0% and the “RG43 = % root galls at 43 days after treatment” value is 26.8%. For the same compound, the “control of root galling compared with oxamyl at an equivalent rate” value in series [3] (28 day time point) is “statistically better than oxamyl”. Moreover, the “control of root galling compared with oxamyl at an equivalent rate” value in series [3] (43 day time point) is “statistically better than oxamyl”.

On to `Cc1cc(Cl)ccc1-c1noc(-c2ccco2)n1` [compound 5823], for which, in series [4], the “difference in susceptibility between wild-type (N2 Bristol) and ced-3 and ced-4 mutants, including time to mortality” value is reported as “No observable phenotypic difference in susceptibility”.
